Reference: US20250099486A1, “WOUND HEALING MEDICAMENT” (The University of Sheffield, priority 2017, published 2025)

Assays:
[1] = system: endothelial cell; details: in vitro; reported by Merchan et al. 2010; cited from earlier work
[2] = system: chorionic allantoic membrane (CAM); assay: CAM assay of deoxy sugar-loaded biomaterials (in ovo, implanted day 8, scored day 14); assay type: in vivo, chicken (Gallus domesticus); details: loaded (1 mg/ml) in cross-linked chitosan/collagen hydrogels
Experimental: Fertilized chicken (Gallus domesticus) eggs were purchased from Big Bird (Raiwind road, Lahore, Pakistan) and incubated at 37° C. from day 2 of fertilization until day 8 in a humidified egg incubator (HHD, 435, China). At day 8, a square window (1 cm^2) was cut into the shell and removed, and a 2 cm^2 piece of the electrospun scaffold or hydrogels (16% PCL electrospun scaffold/CS/PVA hydrogel/CS/collagen hydrogels) placed onto the CAM. Each egg was implanted with one scaffold or hydrogel only.
The shell window was closed with parafilm (Bemis Flexible Packaging, USA) and sealed with adhesive tape. After implantation, eggs were placed again at 37° C. in a 40% humidified incubator until day 14. At day 14, biomaterials were retrieved and the eggs were sacrificed. Angiogenesis was quantified by taking light microscope pictures just before scaffold retrieval and then blindly scored by four assessors using histological images of the retrieved materials. The number of implanted and survived eggs is given in the caption of respective CAM assay figures.
D and L isomers of three-deoxysugars (ribose, fucose and rhamnose) were loaded onto the porous freeze gelated triethyl orthoformate (4%) covalently cross-linked chitosan/collagen (1:1) hydrogels. The hydrogels were soaked in an aqueous solution of sugars (1 mg/ml) and were further lyophilized (freeze dried) to produce porous membranes. As for the electrospun scaffold, the hydrogels were grafted into the fertilized eggs at day 8 and after day 14 the eggs were sacrificed and the effect of sugars on angiogenesis was investigated.

[3] = E2 and 2dDR release from PHBV scaffolds in PBS; assay type: physicochemical; details: within 7 days
Experimental: 10% (w/w) PHBV solution loaded was prepared prior to electrospinning. 1 g of PHBV granules (Goodfellow, London, UK) were dissolved in 1 g of methanol (Fisher Scientific, Massachusetts, USA) and 8 g of DCM (Fisher Scientific, Massachusetts, USA) in a fume hood. Four 10% PHBV solutions were prepared prior to addition of substances. Finally, 25 mg E2, 50 mg of E2, 250 mg of 2dDR and 500 mg of 2dDR were then added to each solution per 1 g of PHBV. The mixtures were magnetically stirred overnight.
Scaffolds were cut into pieces so to fit into an 6-well plate, weighed and submerged in 4 ml of PBS. The E2 and 2dDR concentrations released from each group (25 mg E2, 50 mg E2, 250 mg 2dDR, 500 mg 2dDR) were measured […] using a UV-VIS spectrophotometer (Thermo Fischer Evolution 220, Massachusetts, USA) at 238 nm for 2dDR and 220 nm for E2. Absorbance values were converted into concentrations using a standard curve of known concentrations of E2 and 2dDR.

[4] = system: CAM; assay: Ex-ovo CAM assay, implantation of E2 and 2dDR releasing PHBV scaffolds; assay type: in vivo, chicken (Gallus domesticus); details: for mean vessel count: control 23.1 (±1.24)
Experimental: (§1) All CAM experiments were carried out according to the Home Office, UK guidelines. Fertilised chicken eggs (Gallus domesticus) were purchased from Henry Stewart & Co. (MedEggs, Norwich, UK). The eggs were carefully wiped with 20% industrial methylated spirit (IMS) solution using hand paper towels in order to remove dirt and feathers from the shell. The eggs were then incubated at 37.5° C. until embryonic development day (EDD) 3, lying horizontally in an humidified egg incubator (RCOM King SURO, P&T Poultry, Powys, Wales).
(§2) On EDD3, the upper surface of the eggs were marked with a felt pen. The eggs were held horizontally (with the marked surface on top) and cracked on the edge of a 1000 ml glass beaker and kept close to the bottom surface of petri dishes. The embryos were then transferred gently into sterile petri dishes and kept in a humidified incubator (Binder, Tuttlingen, Germany) at 38° C.
Scaffolds were cut into 5.5 mm diameter circles using a laser cutting machine (Epilog Laser Cutter, Clevedon, UK) and sterilised under UV light for 1 hour prior to implantation. Two circular scaffolds were placed on CAM at EDD8. Images of the scaffolds were acquired using a digital microscope at EDD 12 and EDD14. Microinjection of rhodamine labelled lectin into the circulation was performed, CAMs were removed and fixed in 3.7% formaldehyde solution. Embryos were then sacrificed at the end of EDD14. Angiogenesis was quantified by counting all blood vessels that converged towards the graft.
Haematoxylin and Eosin (H&E) staining was performed on cell impregnated scaffolds by modifiying a standard protocol. Briefly, fixed samples were embedded in optimal cutting temperature OCT and frozen in liquid nitrogen for 3 minutes. Sections were cut 8-10 μm thick using a cryostat (Leica Biosystems Nussloch, Germany) at −20° C. Sections were then stained with haematoxylin for 90 seconds and eosin for 5 minutes respectively. Finally H&E images were acquired under a light microscope (Motic DM-B1, Xiamen, China). The total number of blood vessels adjacent to the scaffolds were quantified by counting blood vessels in H&E sections [A. Minajeva, M. Kase, M. Saretok, A. Adamson-Raieste, S. Kase, K. Niinepuu, M Vardja, T. Asser, J. Jaal, Impact of Blood Vessel Quantity and Vascular Expression of CD133 and ICAM-1 on Survival of Glioblastoma Patients, Neurosci J. 2017 (2017) 8 pages] Briefly, all discernible blood vessels adjacent to the scaffolds were counted by two independent researchers using two independent microscopes at 10× magnification from the total of six different slides for each group and six different area of interest from each slide.

[5] = system: CAM; assay: Ex-ovo CAM assay, direct application of substances; assay type: in vivo, chicken (Gallus domesticus); details: over 4 days
Experimental: as §1, §2
Plastic rings (˜6.5 mm in diameter) were used as a reservoir for substances and a marker for the implantation area, were placed on the CAM, and the substances were applied as 20 μl volume onto the CAM twice a day to give a […] between EDD7 and EDD11. Images of the rings were acquired using a digital microscope at EDD11, and then 20% lens culinaris agglutinin (LCA) (Vector Laboratories, Peterborough, UK) was injected into the circulation for labelling the intravascular endothelial cells using 30G needles under a dissection microscope (Wild Heerbrugg, Heerbrugg, Switzerland). CAMs were then removed and fixed in 3.7% formaldehyde solution. Embryos were sacrificed at the end of EDD11. Fixed CAM samples were then imaged under a confocal microscope (Zeiss LSM 510 Meta, Jena, Germany) for investigating the effect of substances on the microvascular structure of the CAMs.
Blood vessels were quantified by segmentation of the images [C. Roma-Rodrigues, A. Heuer-Jungemann, A. R. Fernandes, A. G. Kanaras, P. V. Baptista, Peptide-coated gold nanoparticles for modulation of angiogenesis in vivo, IntJ Nanomedicine. 11 (2016) 2633-2639. doi: 10.2147/IJN.S108661] so as to include all discernible vessels and then counting the branch points and calculating average vessel lengths [D. Ribatti, B. Nico, A. Vacca, M. Presta, The gelatin sponge-chorioallantoic membrane assay, Nat Protoc. 1 (2006) 85-91. doi: 10.1038/nprot.2006.13, P. Brooks, A. P. Montgomery, D. Cheresh, Use of the 10-Day-Old Chick Embryo Model for Studying Angiogenesis, Integrin Protoc. 129 (1999) 257-269. doi: 10.1385/1-59259-249-X: 257] via multiple image processing steps. Firstly, the internal area of the ring was cropped, and the red, green and blue channels were split using Adobe Photoshop CS6 (ADOBE Systems Inc., San Jose, California, USA). The green channel was then imported to ImageJ (Wayne Rasband, National Institutes of Health, USA) for further analysis including unsharp mask filtering, enhancing the local contrast, noise removal and segmentation. Finally, the number of branch points was quantified using quantification software (AngioTool, National Cancer Institute, USA) (FIG. 14A) and average blood vessel lengths were calculated by using binary image histograms with known pixel/mm ratios in ImageJ (Wayne Rasband, National Institutes of Health, USA).
The percentage vascular area (VA %) of the microvasculature of CAMs were quantified using confocal images of rhodamine labelled lectin injected CAM samples as shown in FIG. 14B. To do this, images were imported to ImageJ (Wayne Rasband, National Institutes of Health, USA) and converted to binary images after filtering and smoothing processes prior to quantification. VA % was calculated using the histogram list of black and white areas in the image.
All chemicals were purchased from Sigma Aldrich unless indicated otherwise. […]

Question: With `O=CC[C@@H](O)[C@H](O)[C@H](O)CO` [2-DG, 2-deoxy-D-Glucose] as the compound, how does the antiangiogenic activity [1] read?
Answer: inhibited endothelial capillary formation and endothelial cell migration

Question: For `C[C@@H](O)[C@H](O)[C@H](O)[C@@H](O)C=O` [Deoxy-D-fucose, D-fucose, reference compound], which angiogenic response [2] is on record?
Answer: no significant response

Question: With `C[C@]12CC[C@@H]3c4ccc(O)cc4CC[C@H]3[C@@H]1CC[C@@H]2O` [E2, Oestradiol, reference compound] as the compound, how does the “total release from scaffolds, of the initial amount present in the polymer solution” value ([3]; 25 mg E2 per 1 g PHBV scaffold) read?
Answer: 1.3%

Question: What about the “total release from scaffolds, of the initial amount present in the polymer solution” value ([3]; 50 mg E2 per 1 g PHBV scaffold) of the same compound?
Answer: 1.6%

Question: And the mean vessel count ([4]; 25 mg E2 loaded PHBV scaffolds)?
Answer: 49.5 (±0.92)

Question: And the mean vessel count ([4]; 50 mg E2 loaded PHBV scaffolds)?
Answer: 37.9 (±1.05)

Question: And the “mean number of blood vessels adjacent to the scaffolds (H&E sections)” value ([4]; all concentrations, compared with controls and CAM only groups)?
Answer: significantly increased

Question: What about the “number of discernible blood vessels growing towards the scaffolds in comparison with plain PHBV scaffolds” value ([4]; all groups of releasing PHBV scaffolds) of the same compound?
Answer: at least doubled

Question: What about the “increase of number of branch points compared to controls” value (“increase of number of branch points” for short) ([5]; E2 100 ng/day) of the same compound?
Answer: 1.3 fold

Question: What about the “increase of number of branch points” value ([5]; E2 200 ng/day) of the same compound?
Answer: 1.5 fold

Question: And the “percentage vascular area (VA %) of microvasculature” value ([5]; E2 200 ng/day, control 55.3%±3%)?
Answer: 79.5%±5%

Question: What about the “increase of number of branch points” value ([5]; E2 600 ng/day) of the same compound?
Answer: 1.4 fold

Question: And the “increase of average vessel length compared to controls” value ([5]; all E2 concentrations (100, 200, 600 ng/day))?
Answer: 1.2 fold

Question: Which angiogenic response [2] does the source give for `C[C@@H](O)[C@@H](O)[C@H](O)[C@H](O)C=O` [Deoxy-D-rhamnose, D-rhamnose, reference compound] here?
Answer: only a marginal response
